Measured values published in publication PMC5618409, “Sequence Analysis, Kinetic Constants, and Anion Inhibition Profile of the Nacrein-Like Protein (CgiNAP2X1) from the Pacific Oyster Magallana gigas (Ex-Crassostrea gigas)” (Marine Drugs, 2017).
pKi: −log10 of the molar value. Read-outs that look alike come from different tables or passages of the source.

Target: CgiNAP2X1 (Magallana gigas, UniProt A0A8W8INI3)
Assay: stopped-flow CO2 hydration assay
Assay type: biochemical
Conditions: for Ki: read-out: KIs [mM] ^2 / CgiNAP2X1

Chain of CgiNAP2X1 (A0A8W8INI3 23-318 limits assumed): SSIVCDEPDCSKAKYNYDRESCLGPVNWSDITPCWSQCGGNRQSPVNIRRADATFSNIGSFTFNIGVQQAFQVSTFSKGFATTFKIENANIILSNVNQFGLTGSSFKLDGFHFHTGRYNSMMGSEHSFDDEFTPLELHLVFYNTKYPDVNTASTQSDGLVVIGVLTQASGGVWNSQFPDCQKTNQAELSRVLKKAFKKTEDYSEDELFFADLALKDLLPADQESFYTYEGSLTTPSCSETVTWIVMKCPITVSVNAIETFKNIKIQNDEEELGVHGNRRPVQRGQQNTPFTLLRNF

SMILES	pKi	Ki [mM]
O=S(=O)(O)C(F)(F)F [CF3SO3^−]	2.06	–
N#CO [CNO^−]	2.51	–
Cl [Cl^−]	1.97	–
S [HS^−]	2.09	–
I [I^−]	2.05	–
O=NO [NO2^−]	2.15	–
N#CS [SCN^−]	2.23	–
N#C[SeH] [SeCN^−]	2.09	–
[O]=[Sn]([OH])[OH] [SnO3^2−]	2.46	–
OB(O)c1ccccc1 [phenylboronic acid]	4.14	–
NS(=O)(=O)O [sulfamate]	–	0.073
NS(N)(=O)=O [sulfamide]	–	0.076
